Reference: patent publication US9708639B2, “Method for quantifying amino acids with pyrophosphate” (TOYAMA PREFECTURE, priority 2012, dated 2017)

How the values were obtained:
Thermotoga-derived SerRS = molecular target: T1, Thermotoga-derived SerRS (Thermotoga maritima, UniProt Q9X199); assay: Calibration curve for amino acid by coupled PPDK and LDH; assay type: biochemical, Thermotoga maritima MSB8 strain; conditions: Ser 0 to 200 μM; hydroxylamine 1000 mM; SerRS 0.2 mg/ml (8 mU/ml); 30° C.
T1 construct: His tag (C); made in house; host or cells: Escherichia coli BL21 (DE3)
T1 sequence (Q9X199 whole entry): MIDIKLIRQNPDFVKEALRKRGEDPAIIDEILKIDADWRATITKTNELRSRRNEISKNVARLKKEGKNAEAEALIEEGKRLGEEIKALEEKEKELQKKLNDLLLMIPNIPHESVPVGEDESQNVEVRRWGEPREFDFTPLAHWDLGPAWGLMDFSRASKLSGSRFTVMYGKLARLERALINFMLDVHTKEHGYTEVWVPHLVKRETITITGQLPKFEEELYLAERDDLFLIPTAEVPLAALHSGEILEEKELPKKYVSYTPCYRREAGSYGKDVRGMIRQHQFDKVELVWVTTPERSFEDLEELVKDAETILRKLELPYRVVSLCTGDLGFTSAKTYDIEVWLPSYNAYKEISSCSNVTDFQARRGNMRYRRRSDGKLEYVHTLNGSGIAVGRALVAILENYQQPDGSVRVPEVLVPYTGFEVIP
Experimental: (§1) A test sample containing an amino acid as the measurement subject and a reaction mixture for quantifying amino acid having the following composition were mixed. The mixture was left standing at 30° C. to allow the AARS, PPDK, and LDH reactions to advance, and decrease of the absorbance at 340 nm was measured. The volume of the mixture was 200 μl, and after the reaction mixture was put into the wells of a 96-well microplate, the absorbance was measured with a microplate reader.
(§2) Reaction mixture for quantifying amino acid: 20 mM Tris-HCl (pH 7.0), 10 mM MgCl2, 10 mM NH4Cl, 0.3 mM PEP, 0.3 mM NADH, 0.2 mM ATP, 0.2 mM AMP, 70 mU/ml PPDK, 50 U/ml LDH, and AARS (concentrations are final concentrations obtained after mixing with test sample)
(§3) Calibration curves were prepared by using the AARS activity measurement method described in 8. and standard Cys, Lys, Ser, and Tyr solutions as test samples. The concentrations of the aforementioned amino acids were set so that the final concentrations thereof are in the range of 0 to 200 μM. The hydroxylamine concentration was 200 mM for the samples used for the Tyr calibration curve, or 1000 mM for the samples used for the Cys, Lys, and Ser calibration curves. The Thermotoga-derived CysRS, LysRS, SerRS, TyrRS, and the Thermus-derived TyrRS were added to the reaction mixture at final concentrations of 0.2 (7 mU/ml), 0.1 (10 mU/ml), 0.2 (8 mU/ml), 0.4 (40 mU/ml), and 0.1 mg/ml, respectively.
(§4) Calibration curves could be similarly prepared when adding pyrophosphate instead of the aforementioned amino acids, but the inclinations of the Lys, Ser, and Tyr calibration curves (absorbance change per mM of substrate) were 80% or more of the inclination of the pyrophosphate calibration curve. […] The inclination of the Cys calibration curve was slightly smaller than those of the other calibration curves, and it is considered that this is because a part of cysteine in the test sample was converted into cystine by air oxidation, and the real concentration of cysteine was reduced.

Thermus-derived MetRS = molecular target: T2, Thermus-derived MetRS (Thermus thermophilus, UniProt P23395); assay: Qualitative test of AARS substrate specificity (AARS activity at 70° C.); assay type: biochemical, Thermus thermophilus HB8 strain; parameters: key: +: Activity was detected; −: Activity was not detected; conditions: amino acids 200 μM, hydroxylamine 400 mM
T2 construct: host or cells: Escherichia coli BL21 (DE3)
T2 sequence (P23395 whole entry): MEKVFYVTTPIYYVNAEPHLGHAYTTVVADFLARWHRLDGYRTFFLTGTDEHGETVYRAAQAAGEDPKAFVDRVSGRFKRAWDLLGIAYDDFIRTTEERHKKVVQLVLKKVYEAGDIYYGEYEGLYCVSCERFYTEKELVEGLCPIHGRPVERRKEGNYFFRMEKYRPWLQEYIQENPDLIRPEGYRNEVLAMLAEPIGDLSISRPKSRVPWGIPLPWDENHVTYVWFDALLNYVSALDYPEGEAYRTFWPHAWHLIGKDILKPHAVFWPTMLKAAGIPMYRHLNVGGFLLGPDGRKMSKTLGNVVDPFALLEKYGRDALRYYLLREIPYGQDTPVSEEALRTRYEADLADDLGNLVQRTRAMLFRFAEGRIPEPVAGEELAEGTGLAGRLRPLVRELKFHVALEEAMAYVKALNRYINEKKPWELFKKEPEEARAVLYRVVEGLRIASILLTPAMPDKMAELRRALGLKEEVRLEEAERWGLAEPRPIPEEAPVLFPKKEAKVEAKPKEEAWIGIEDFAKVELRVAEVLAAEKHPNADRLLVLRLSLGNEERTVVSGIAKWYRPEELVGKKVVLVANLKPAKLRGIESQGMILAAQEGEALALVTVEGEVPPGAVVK
Experimental: (§5) A test sample containing an amino acid as the measurement subject and a reaction mixture for quantifying amino acid having the following composition were mixed. The mixture was left standing at 70° C. to allow the AARS reaction to advance. The mixture in a volume of 600 μl, 60 μl of a 1 M 2-mercaptoethanol solution, and 240 μl of the color development solution mentioned below were mixed, then the mixture was left standing at room temperature for 20 minutes, and the absorbance was measured at 580 nm in a cuvette having an optical path length of 1 cm.
(§6) Reaction mixture for quantifying amino acid: 20 mM HEPES-NaOH (pH 8.0), 5 mM MgCl2, 0.5 mM ATP, and AARS (concentrations are final concentrations obtained after mixing with test sample)
(§7) Color developing solution: A solution obtained by mixing water and concentrated sulfuric acid at a ratio of 6:1 and dissolving (NH4)6Mo7O24.4H2O in the mixture at a concentration of 0.025 g/ml
(§8) Presence or absence of pyrophosphate generation was verified for the Thermotoga-derived CysRS, HisRS, LysRS, ProRS, SerRS, TrpRS, and TyrRS by using the AARS activity measurement method described in 9. and standard solutions of the various amino acids as test samples. AARSs were added to the reaction mixture at final concentrations of 0.3 (8 mU/ml), 0.1, 0.2 (3 mU/ml), 0.2, 0.1 (1 mU/ml), 0.1, 0.2 (20 mU/ml) mg/ml, respectively. The reaction mixtures were prepared so that the final concentration of Tyr was 1 mM, and the final concentrations of the other amino acids were 5 mM. As for the hydroxylamine concentration, it was added at a final concentration of 1000 mM for all the cases. Further, presence or absence of pyrophosphate production was also verified for the Thermus-derived MetRS and TyrRS by using the AARS activity measurement method described in 10. and standard solutions of the various amino acids as test samples. The reaction mixtures were prepared so that the final concentrations of the amino acids were 200 μM. Hydroxylamine was added at a final concentration of 400 mM.
(§9) Detection or no detection of the activity in the reaction mixtures containing a combination of each AARS and amino acid are shown in Table 2. The symbol + indicates detection of the activity, and − indicates no detection of the activity.

Thermus-derived TyrRS = molecular target: T3, Thermus-derived TyrRS (Thermus thermophilus, UniProt P83453); assay: as above; assay type: biochemical, Thermus thermophilus HB8 strain; parameters: key: +: Activity was detected; −: Activity was not detected; conditions: amino acids 200 μM, hydroxylamine 400 mM
T3 construct: host or cells: Escherichia coli BL21 (DE3)
T3 sequence (P83453 whole entry): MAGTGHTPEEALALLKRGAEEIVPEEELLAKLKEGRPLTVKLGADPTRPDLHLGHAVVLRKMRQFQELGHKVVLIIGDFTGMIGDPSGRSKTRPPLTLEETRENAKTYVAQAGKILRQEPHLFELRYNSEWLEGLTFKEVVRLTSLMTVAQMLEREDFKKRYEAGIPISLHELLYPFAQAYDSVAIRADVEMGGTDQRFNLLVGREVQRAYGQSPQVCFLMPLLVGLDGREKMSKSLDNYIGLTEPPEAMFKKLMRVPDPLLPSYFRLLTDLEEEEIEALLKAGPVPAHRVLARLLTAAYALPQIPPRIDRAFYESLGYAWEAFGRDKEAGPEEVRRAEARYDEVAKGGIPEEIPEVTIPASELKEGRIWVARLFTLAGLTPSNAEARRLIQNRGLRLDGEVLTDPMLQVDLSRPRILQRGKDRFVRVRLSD
Experimental: as §5, §6, §7, §8, §9

Thermotoga-derived LysRS = molecular target: T4, Thermotoga-derived LysRS (Thermotoga maritima, UniProt Q9X231); assay: Calibration curve for amino acid by coupled PPDK and LDH; assay type: biochemical, Thermotoga maritima MSB8 strain; conditions: Lys 0 to 200 μM; hydroxylamine 1000 mM; LysRS 0.1 mg/ml (10 mU/ml); 30° C.
T4 construct: His tag (C); made in house; host or cells: Escherichia coli BL21 (DE3)
T4 sequence (Q9X231 1-502): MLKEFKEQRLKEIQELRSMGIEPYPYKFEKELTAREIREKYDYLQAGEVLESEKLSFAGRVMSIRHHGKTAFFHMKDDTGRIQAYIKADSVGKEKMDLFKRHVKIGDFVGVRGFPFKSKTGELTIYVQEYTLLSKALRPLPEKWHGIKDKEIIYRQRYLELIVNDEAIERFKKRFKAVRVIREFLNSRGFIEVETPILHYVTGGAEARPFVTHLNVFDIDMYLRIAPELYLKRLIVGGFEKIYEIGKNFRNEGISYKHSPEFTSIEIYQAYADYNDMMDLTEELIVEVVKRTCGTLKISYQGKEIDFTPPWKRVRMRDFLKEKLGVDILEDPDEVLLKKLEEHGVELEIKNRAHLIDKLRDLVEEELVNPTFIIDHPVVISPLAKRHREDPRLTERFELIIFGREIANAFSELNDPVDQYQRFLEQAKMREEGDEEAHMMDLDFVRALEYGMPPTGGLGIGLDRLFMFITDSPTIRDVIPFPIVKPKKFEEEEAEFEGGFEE
Experimental: as §1, §2, §3, §4

Row | SMILES | inclination of calibration curve relative to inclination of the pyrophosphate calibration curve (Thermotoga-derived SerRS) [%] | Detection of the activity (pyrophosphate production), MetRS (Thermus) (Thermus-derived MetRS) | Detection of the activity (pyrophosphate production), TyrRS (Thermus) (Thermus-derived TyrRS) | inclination of calibration curve relative to inclination of the pyrophosphate calibration curve (Thermotoga-derived LysRS) [%]
1 | N[C@@H](CO)C(=O)O [Ser, L-serine] | ≥ 80 | − | − | 
2 | CC(C)[C@H](N)C(=O)O [Val, L-valine] |  | − | − | 
3 | N[C@@H](CS)C(=O)O [Cys, L-cysteine] |  | − | − | 
4 | C[C@@H](O)[C@H](N)C(=O)O [Thr, L-threonine] |  | − | − | 
5 | N=C(N)NCCC[C@H](N)C(=O)O [Arg, L-arginine] |  | − | − | 
6 | CC[C@H](C)[C@H](N)C(=O)O [Ile, L-isoleucine] |  | − | − | 
7 | N[C@@H](Cc1ccccc1)C(=O)O [Phe, L-phenylalanine] |  | − | − | 
8 | N[C@@H](CC(=O)O)C(=O)O [Asp, L-aspartic acid] |  | − | − | 
9 | NC(=O)CC[C@H](N)C(=O)O [Gln, L-glutamine] |  | − | − | 
10 | N[C@@H](CCC(=O)O)C(=O)O [Glu, L-glutamic acid] |  | − | − | 
11 | NCC(=O)O [Gly, glycine] |  | − | − | 
12 | CSCC[C@H](N)C(=O)O [Met, L-methionine] |  | + | − | 
13 | NCCCC[C@H](N)C(=O)O [Lys, L-lysine] |  | − | − | ≥ 80
14 | N[C@@H](Cc1c[nH]c2ccccc12)C(=O)O [Trp, L-tryptophan] |  | − | − | 
15 | NC(=O)C[C@H](N)C(=O)O [Asn, L-asparagine] |  | − | − | 
16 | C[C@H](N)C(=O)O [Ala, L-alanine] |  | − | − | 
17 | N[C@@H](Cc1ccc(O)cc1)C(=O)O [Tyr, L-tyrosine] |  | − | + | 
18 | O=C(O)[C@@H]1CCCN1 [Pro, L-proline] |  | − | − | 
19 | N[C@@H](Cc1c[nH]cn1)C(=O)O [His, L-histidine] |  | − | − | 
20 | CC(C)C[C@H](N)C(=O)O [Leu, L-leucine] |  | − | − | 
